The values below come from ChEMBL document CHEMBL5465560, “Selectivity Literature for EUbOPEN Chemogenomic Library” (2024).

In assay [1] the target is Ephrin type-A receptor 2 (Homo sapiens) (UniProt P29317). Kind of assay: Selectivity interaction (Kinase panel (Z-LYTE Assay)) EUB0001632a EPHA2. The conditions noted are these: at 10 µM.
Assay [2] has as its target T1, Ephrin type-B receptor 2 (Homo sapiens) (UniProt P29323).
T1 sequence (whole entry): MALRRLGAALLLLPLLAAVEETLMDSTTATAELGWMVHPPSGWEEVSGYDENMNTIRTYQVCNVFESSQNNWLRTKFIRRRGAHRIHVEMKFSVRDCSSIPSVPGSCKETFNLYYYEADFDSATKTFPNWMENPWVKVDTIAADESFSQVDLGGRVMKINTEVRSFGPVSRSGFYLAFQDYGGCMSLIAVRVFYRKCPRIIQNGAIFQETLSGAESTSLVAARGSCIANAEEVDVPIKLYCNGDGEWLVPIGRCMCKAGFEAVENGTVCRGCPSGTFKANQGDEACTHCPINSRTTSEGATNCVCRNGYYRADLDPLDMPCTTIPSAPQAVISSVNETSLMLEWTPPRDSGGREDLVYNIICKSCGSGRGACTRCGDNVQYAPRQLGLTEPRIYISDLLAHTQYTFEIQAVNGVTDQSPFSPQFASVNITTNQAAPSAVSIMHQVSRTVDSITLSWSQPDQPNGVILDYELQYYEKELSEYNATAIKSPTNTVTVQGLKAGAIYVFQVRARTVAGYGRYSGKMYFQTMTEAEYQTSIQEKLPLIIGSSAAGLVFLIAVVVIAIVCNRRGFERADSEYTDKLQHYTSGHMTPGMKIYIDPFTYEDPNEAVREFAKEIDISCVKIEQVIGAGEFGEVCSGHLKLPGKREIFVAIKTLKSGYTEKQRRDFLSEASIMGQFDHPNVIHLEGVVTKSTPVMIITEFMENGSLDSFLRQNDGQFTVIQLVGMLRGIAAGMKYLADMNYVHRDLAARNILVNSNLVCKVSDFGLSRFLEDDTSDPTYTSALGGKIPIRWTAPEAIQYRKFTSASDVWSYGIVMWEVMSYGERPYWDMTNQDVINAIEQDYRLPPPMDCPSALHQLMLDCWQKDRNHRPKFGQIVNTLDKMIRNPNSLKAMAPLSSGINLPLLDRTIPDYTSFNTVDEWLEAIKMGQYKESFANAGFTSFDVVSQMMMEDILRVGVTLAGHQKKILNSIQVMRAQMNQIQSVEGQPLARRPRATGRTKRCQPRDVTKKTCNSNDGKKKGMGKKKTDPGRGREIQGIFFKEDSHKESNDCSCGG
Kind of assay: Selectivity interaction (KinomeScan (DiscoverX)) EUB0000666a EPHB2. The conditions noted are these: at 10 µM.

Assay [3] deals with T2, Tyrosine-protein kinase TXK (Homo sapiens) (UniProt P42681).
T2 sequence (whole entry): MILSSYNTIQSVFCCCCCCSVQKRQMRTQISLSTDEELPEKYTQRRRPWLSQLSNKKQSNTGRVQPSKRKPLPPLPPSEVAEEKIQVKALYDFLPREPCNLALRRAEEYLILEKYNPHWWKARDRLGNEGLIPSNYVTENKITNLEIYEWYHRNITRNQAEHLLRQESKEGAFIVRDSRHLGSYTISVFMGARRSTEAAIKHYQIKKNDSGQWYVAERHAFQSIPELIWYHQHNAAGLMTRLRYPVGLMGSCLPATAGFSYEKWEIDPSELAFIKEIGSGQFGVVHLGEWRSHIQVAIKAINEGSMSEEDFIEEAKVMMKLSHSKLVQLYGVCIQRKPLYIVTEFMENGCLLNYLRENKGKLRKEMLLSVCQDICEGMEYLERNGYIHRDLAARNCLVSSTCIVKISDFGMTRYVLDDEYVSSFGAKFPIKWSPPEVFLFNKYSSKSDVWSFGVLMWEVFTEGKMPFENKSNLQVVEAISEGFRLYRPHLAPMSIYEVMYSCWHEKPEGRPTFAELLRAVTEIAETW
Kind of assay: Selectivity interaction (KinomeScan (DiscoverX)) EUB0001049a TXK. The settings on record: at 1 µM.

Assay [4] concerns the target T3, Serine/threonine-protein kinase PLK4 (Homo sapiens) (UniProt O00444).
T3 sequence (whole entry): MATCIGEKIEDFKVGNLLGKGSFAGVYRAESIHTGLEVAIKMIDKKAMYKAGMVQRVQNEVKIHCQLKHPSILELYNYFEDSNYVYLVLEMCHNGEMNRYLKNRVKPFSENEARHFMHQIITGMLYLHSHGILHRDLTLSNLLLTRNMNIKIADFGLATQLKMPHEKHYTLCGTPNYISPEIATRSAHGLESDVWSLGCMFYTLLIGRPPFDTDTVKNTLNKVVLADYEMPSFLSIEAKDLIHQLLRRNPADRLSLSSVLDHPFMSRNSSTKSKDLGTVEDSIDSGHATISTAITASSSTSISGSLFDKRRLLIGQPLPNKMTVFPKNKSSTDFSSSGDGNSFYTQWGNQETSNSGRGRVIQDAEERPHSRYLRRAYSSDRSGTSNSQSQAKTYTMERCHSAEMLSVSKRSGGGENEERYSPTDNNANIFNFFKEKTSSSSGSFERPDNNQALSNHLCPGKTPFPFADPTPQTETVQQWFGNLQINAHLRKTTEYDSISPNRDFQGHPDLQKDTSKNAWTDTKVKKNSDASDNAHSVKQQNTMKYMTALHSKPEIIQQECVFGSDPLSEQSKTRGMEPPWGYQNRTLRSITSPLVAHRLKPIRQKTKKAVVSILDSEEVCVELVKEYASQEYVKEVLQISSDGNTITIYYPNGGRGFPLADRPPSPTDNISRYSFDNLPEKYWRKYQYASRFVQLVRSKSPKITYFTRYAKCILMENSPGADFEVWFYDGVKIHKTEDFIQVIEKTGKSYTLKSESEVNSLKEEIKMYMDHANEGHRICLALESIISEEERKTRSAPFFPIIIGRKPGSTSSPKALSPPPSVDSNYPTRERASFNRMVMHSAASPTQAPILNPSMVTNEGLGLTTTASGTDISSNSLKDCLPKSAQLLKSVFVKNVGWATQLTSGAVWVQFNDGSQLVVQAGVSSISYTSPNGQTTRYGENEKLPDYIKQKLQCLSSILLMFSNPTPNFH
Kind of assay: Selectivity interaction (KinomeScan (DiscoverX)) EUB0001049a PLK4. The conditions noted are these: at 1 µM.

Assay [5] addresses Bromodomain testis-specific protein (Homo sapiens) (UniProt Q58F21). Kind of assay: Selectivity interaction (Bromodomain panel (DSF asssay)) EUB0000270b BRDT.

Chain of Ephrin type-A receptor 2 (Homo sapiens) (P29317 whole entry): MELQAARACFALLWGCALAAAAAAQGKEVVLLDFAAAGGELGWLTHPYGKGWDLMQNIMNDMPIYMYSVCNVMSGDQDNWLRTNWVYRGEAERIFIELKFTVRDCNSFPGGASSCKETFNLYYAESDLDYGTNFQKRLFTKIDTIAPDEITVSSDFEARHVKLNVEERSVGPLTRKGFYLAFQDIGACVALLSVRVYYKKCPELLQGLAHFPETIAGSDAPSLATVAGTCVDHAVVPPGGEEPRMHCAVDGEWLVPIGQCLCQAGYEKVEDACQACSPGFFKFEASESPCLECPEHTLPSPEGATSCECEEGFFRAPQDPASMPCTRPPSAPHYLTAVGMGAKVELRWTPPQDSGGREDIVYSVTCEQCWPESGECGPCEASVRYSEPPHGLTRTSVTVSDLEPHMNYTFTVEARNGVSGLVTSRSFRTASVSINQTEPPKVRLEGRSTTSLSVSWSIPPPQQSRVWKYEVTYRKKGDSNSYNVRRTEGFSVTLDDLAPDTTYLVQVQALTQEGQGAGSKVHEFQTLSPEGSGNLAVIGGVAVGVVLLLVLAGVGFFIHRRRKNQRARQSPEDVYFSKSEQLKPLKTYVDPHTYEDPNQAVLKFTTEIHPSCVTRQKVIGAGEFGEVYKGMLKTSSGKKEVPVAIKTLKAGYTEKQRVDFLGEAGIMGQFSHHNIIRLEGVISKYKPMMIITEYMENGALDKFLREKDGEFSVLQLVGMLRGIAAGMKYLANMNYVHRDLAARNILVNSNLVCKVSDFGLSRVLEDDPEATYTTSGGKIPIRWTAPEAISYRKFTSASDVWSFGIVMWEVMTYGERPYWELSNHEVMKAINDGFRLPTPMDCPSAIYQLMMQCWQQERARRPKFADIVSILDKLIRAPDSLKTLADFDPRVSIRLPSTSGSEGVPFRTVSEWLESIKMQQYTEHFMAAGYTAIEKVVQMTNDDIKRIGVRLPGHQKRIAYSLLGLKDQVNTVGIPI

In assay [1], `Cn1cc(-n2cnc3c(NCc4nc5cc(Cl)c(Cl)cc5[nH]4)nc(N4CCOCC4)nc32)cn1` registered a % of control of 14.4%.
Regarding `O=C(NOC[C@H](O)CO)c1ccc(F)c(F)c1Nc1ccc(I)cc1F`, the % of control in assay [2] turned out to be 73%.
For `COc1cc(Nc2nc(C)cc(-c3cnn4nc(OC)ccc34)n2)cc(C(F)(F)F)c1`, the % of control in assay [3] worked out at 91%; in assay [4], 49%.
As for `Cc1cc(CN)cc(C)c1-c1ncn(C)c1-c1cncn1C`, in assay [5], the dTM was -1.8 K.
